Publication PMC3930694, “Small Molecule Inhibitors Target the Tissue Transglutaminase and Fibronectin Interaction” (PLoS ONE, 2014)

Target: T1, Tissue transglutaminase (TG2) (Homo sapiens, UniProt P21980)
T1 construct: gene TGM2; Full length TG2, His6-tagged, expressed in E. coli
Test: competition ELISA with purified His6-TG2 and biotinylated FN42 (FN42 saturation curves, Lineweaver-Burk); AlphaLISA
Type: binding

T1 sequence (P21980 whole entry): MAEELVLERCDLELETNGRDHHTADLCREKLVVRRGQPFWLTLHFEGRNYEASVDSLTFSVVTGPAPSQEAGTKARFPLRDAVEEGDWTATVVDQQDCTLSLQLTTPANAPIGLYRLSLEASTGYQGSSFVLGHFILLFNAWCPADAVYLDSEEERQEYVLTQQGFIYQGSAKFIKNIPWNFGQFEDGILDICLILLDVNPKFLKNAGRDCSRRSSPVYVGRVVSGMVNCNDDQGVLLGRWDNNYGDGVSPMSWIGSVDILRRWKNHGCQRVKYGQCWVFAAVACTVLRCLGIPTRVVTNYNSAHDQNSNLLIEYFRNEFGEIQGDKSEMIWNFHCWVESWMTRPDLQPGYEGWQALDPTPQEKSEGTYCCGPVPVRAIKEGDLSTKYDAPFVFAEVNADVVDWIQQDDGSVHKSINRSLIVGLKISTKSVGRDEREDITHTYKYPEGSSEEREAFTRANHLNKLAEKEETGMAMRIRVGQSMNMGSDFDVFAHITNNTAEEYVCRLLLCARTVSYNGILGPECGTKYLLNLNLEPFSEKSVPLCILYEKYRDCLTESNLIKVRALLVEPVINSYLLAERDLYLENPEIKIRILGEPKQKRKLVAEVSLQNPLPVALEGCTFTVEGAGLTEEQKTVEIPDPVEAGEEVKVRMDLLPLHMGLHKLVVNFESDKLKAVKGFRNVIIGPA
T1 sequence (P02751 32-2477 partner): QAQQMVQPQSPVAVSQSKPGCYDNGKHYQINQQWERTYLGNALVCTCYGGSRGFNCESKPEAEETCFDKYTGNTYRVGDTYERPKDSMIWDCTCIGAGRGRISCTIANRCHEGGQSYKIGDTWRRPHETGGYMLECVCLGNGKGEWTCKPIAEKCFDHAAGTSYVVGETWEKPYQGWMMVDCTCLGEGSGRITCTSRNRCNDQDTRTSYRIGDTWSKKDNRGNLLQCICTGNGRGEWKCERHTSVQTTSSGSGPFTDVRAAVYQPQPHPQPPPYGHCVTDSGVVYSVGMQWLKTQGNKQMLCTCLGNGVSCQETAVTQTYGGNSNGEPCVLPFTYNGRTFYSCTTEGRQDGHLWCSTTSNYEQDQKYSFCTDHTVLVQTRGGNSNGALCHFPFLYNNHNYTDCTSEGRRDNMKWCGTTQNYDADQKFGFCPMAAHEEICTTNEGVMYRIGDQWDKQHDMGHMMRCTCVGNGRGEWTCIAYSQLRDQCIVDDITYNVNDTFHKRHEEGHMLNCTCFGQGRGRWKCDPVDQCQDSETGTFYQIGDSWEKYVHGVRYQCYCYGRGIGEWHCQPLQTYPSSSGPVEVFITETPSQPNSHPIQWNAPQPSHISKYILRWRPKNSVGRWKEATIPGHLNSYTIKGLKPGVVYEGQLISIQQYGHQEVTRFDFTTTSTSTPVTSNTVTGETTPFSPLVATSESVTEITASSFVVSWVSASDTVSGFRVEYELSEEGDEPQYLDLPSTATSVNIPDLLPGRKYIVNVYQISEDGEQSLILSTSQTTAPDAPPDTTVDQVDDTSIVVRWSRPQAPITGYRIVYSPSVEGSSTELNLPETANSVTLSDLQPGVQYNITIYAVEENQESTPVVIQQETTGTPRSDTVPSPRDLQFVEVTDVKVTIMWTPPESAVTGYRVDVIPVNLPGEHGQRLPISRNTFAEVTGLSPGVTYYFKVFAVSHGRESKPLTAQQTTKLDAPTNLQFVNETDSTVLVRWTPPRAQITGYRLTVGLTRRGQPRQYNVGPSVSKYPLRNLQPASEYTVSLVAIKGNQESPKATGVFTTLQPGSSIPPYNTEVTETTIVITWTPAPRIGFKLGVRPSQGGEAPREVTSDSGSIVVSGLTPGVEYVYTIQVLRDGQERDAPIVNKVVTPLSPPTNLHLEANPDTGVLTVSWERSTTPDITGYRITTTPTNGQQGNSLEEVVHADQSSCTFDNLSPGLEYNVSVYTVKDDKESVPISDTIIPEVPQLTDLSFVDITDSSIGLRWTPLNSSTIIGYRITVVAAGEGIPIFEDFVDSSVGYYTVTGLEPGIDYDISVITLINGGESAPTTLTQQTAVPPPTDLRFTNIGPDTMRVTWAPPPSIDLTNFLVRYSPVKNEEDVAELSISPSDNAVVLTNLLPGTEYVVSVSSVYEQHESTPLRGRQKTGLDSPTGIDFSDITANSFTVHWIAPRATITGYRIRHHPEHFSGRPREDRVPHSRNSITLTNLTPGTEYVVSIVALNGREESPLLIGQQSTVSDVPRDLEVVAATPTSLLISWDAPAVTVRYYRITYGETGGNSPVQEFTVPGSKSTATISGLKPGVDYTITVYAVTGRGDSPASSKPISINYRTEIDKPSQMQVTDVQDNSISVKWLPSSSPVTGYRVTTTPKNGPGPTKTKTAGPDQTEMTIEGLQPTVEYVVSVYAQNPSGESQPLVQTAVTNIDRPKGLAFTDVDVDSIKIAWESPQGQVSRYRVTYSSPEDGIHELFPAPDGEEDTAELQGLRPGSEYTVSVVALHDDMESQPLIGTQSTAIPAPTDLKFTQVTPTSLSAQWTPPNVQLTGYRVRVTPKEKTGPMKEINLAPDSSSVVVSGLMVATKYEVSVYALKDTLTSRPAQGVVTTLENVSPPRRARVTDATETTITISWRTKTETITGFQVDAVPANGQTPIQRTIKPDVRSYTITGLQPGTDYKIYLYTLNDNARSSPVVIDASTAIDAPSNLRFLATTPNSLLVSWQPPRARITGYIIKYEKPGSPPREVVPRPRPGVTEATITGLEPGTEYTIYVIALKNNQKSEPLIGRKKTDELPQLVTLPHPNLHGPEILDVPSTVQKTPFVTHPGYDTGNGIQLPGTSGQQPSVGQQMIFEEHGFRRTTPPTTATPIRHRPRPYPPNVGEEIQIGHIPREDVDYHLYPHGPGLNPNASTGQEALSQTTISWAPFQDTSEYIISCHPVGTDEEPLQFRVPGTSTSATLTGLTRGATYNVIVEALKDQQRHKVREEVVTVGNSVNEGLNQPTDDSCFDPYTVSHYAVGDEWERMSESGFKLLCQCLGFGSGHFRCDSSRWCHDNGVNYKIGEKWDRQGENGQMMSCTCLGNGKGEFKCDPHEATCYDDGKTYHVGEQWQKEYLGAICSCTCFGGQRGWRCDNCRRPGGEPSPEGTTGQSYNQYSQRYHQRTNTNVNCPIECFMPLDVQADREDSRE

Work on `COc1ccc(Cl)cc1C(=O)Nc1ccc(Nc2nc(C)cc(N(C)C)n2)cc1` [TG53] yielded a Ki of 4.15 µM.
